Test results reported in patent US10227331B2 (priority 2015, dated 2019).
Where two headings read alike, the source gives them in different places.

Legend:
[1] = system: Serratia marcescens expressing IMP-1 (CL5741); format: cell-based; conditions: IMP-1 (CL5741), with imipenem 1 μg/ml, 95% inhibition of bacterial growth
Method in brief: (§1)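 Restoration of imipenem susceptibility (1 μg/ml imipenem) was judged by absorbance after 22–24 h at 35° C. Test compound was added to bacteria suspended 1:100 in 1.1× CAMHB from overnight blood-agar cultures.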

[2] = system: Klebsiella pneumoniae expressing VIM-1 (IHMA599644); format: cell-based; conditions: VIM-1 (IHMA599644), with imipenem 1 μg/ml, 95% inhibition of bacterial growth
Method in brief: as §1

[3] = system: Escherichia coli expressing NDM-1 (CLB30005, CLB30016); format: cell-based; conditions: NDM-1 (CLB30016), with imipenem 1 μg/ml, 95% inhibition of bacterial growth
Method in brief: as §1

[4] = molecular target: VIM-1 (Pseudomonas aeruginosa (strain ATCC 15692 / DSM 22644 / CIP 104116 / JCM 14847 / LMG 12228 / 1C / PRS 101 / PAO1), UniProt A0A0F7KYQ8); test: biochemical; conditions: CCF2-FA substrate, 2 hours at 25° C
Method in brief: (§2)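 Semi-log dose-response curves, fitted with a 4-parameter model, gave IC50s. The underlying signal was CCF2-FA fluorescence following 2 hours at 25° C with enzyme, substrate and inhibitor combined.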

[5] = molecular target: NDM-1 (Klebsiella pneumoniae, UniProt C7C422); test: biochemical; format: biochemical; conditions: CCF2-FA substrate, 2 hours at 25° C; read-out: NDM-1 IC50
Chain of NDM-1 (C7C422 whole entry, looked up, species assumed): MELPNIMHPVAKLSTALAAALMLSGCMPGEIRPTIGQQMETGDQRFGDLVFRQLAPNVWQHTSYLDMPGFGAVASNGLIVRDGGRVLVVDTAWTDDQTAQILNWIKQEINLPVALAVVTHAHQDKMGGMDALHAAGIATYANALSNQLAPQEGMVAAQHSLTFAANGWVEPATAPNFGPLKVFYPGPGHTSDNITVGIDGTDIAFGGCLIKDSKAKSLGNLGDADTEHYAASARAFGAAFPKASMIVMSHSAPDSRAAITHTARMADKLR
Method in brief: as §2

[6] = molecular target: IMP-1 (Serratia marcescens, UniProt P52699); test: biochemical; format: biochemical
Chain of IMP-1 (P52699 whole entry, looked up, species assumed): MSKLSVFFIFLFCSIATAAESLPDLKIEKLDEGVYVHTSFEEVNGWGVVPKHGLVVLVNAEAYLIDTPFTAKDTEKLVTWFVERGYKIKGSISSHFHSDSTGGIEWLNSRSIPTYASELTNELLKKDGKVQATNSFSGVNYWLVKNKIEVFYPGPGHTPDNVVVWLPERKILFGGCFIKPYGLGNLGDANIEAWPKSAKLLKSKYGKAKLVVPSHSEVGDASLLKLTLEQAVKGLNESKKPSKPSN
Method in brief: as §2

[7] = system: P. aeruginosa expressing IMP-1, efflux− (MB9799); test: Efflux: concentration of MBL inhibitor which restores susceptibility to imipenem; format: cell-based, Pseudomonas aeruginosa; conditions: imipenem at 2 μg/mL, in the presence of a class A, C, D serine β-lactamase inhibitor closely related to relebactam
From the text: (§3) The strain background is Pseudomonas aeruginosa PAO1.

[8] = system: P. aeruginosa expressing IMP-1, efflux+ (MB9798); format: cell-based, Pseudomonas aeruginosa; conditions: for P. aeruginosa expressing IMP-1, efflux+ (MB9798) MITC95: imipenem at 2 μg/mL, in the presence of a class A, C, D serine β-lactamase inhibitor closely related to relebactam; for Efflux ratio: ratio MITC95 PA_9798/MITC95 PA_9799
From the text: as §3

[9] = CCF2-FA substrate, 2 hours at 25° C, read-out: IMP-1 IC50

SMILES	Serratia marcescens MITC95 [1] [µM]	Klebsiella pneumoniae MITC95 [2] [µM]	Escherichia coli MITC95 [3] [µM]	IC50 [4] [nM]	IC50 [5] [nM]	IC50 [6, 9] [nM]	P. aeruginosa expressing IMP-1, efflux− (MB9799) MITC95 [7] [µM]	P. aeruginosa expressing IMP-1, efflux+ (MB9798) MITC95 [8] [µM]	Efflux ratio [8]	IC50 [6] [nM]
NS(=O)(=O)c1c(S(=O)(=O)C2CN(C(=O)NC3CC3)C2)ccc(-c2ccc(NS(=O)(=O)C3CC3)cc2)c1-c1nn[nH]n1 [Example 245, 3-((4′-(Cyclopropanesulfonamido)-3-sulfamoyl-2-(2H-tetrazol-5-yl)-[1,1′-biphenyl]-4-yl)sulfonyl)-N-cyclopropylazetidine-1-carboxamide]	25	50	25	0.218	0.386	0.126	6.25	50	8.00	–
NS(=O)(=O)c1cccc(-c2ccc(S(=O)(=O)C3CNC3)c(S(N)(=O)=O)c2-c2nn[nH]n2)c1 [Example 247, 4-(Azetidin-3-ylsulfonyl)-2-(2H-tetrazol-5-yl)-[1,1′-biphenyl]-3,3′-disulfonamide]	1.563	3.125	1.563	1.83	2.01	3.24	1.563	25	15.99	–
Nc1ncc(-c2ccc(S(=O)(=O)C3CNC3)c(S(N)(=O)=O)c2-c2nn[nH]n2)c2cccnc12 [Example 248, 3-(8-Amino-1,7-naphthyridin-5-yl)-6-(azetidin-3-ylsulfonyl)-2-(2H-tetrazol-5-yl)benzenesulfonamide]	1.563	3.125	3.125	0.556	0.566	2.09	1.563	6.25	4.00	–
Nc1nc2c(-c3ccc(S(=O)(=O)c4cccc(C(F)(F)F)c4)c(S(N)(=O)=O)c3-c3nn[nH]n3)cccc2s1 [Example 250, 3-(2-Aminobenzo[d]thiazol-4-yl)-2-(2H-tetrazol-5-yl)-6-((3-(trifluoromethyl)phenyl)sulfonyl)benzenesulfonamide]	6.25	100	6.25	0.681	0.245	0.82	3.125	200	64.00	–
Nc1nc2c(-c3ccc(S(=O)(=O)C4CNC4)c(S(N)(=O)=O)c3-c3nn[nH]n3)ccc(F)c2[nH]1 [Example 251, 3-(2-Amino-7-fluoro-1H-benzo[d]imidazol-4-yl)-6-(azetidin-3-ylsulfonyl)-2-(2H-tetrazol-5-yl)benzenesulfonamide]	1.563	1.563	0.3906	0.251	0.0727	0.748	0.7813	1.563	2.00	–
COC(=O)c1nc2c(-c3ccc(S(=O)(=O)C4CNC4)c(S(N)(=O)=O)c3-c3nn[nH]n3)cccc2[nH]1 [Example 252, Methyl 4-(4-(azetidin-3-ylsulfonyl)-3-sulfamoyl-2-(2H-tetrazol-5-yl)phenyl)-1H-benzo[d]imidazole-2-carboxylate]	3.125	6.25	1.563	0.209	0.0464	0.423	3.125	3.125	1.00	–
NS(=O)(=O)c1c(S(=O)(=O)C2CNC2)ccc(-c2cccc3[nH]c(C(=O)O)nc23)c1-c1nn[nH]n1 [Example 253, 4-(4-(Azetidin-3-ylsulfonyl)-3-sulfamoyl-2-(2H-tetrazol-5-yl)phenyl)-1H-benzo[d]imidazole-2-carboxylic Acid]	1.563	3.125	1.563	0.294	0.173	0.664	1.563	1.563	1.00	–
NC(=O)c1nc2c(-c3ccc(S(=O)(=O)C4CNC4)c(S(N)(=O)=O)c3-c3nn[nH]n3)cccc2[nH]1 [Example 254, 4-(4-(Azetidin-3-ylsulfonyl)-3-sulfamoyl-2-(2H-tetrazol-5-yl)phenyl)-1H-benzo[d]imidazole-2-carboxamide]	3.125	6.25	1.563	0.218	0.0825	0.748	1.563	3.125	2.00	–
CNC(=O)c1nc2c(-c3ccc(S(=O)(=O)C4CNC4)c(S(N)(=O)=O)c3-c3nn[nH]n3)cccc2[nH]1 [Example 255, 4-(4-(Azetidin-3-ylsulfonyl)-3-sulfamoyl-2-(2H-tetrazol-5-yl)phenyl)-N-methyl-1H-benzo[d]imidazole-2-carboxamide]	6.25	12.5	6.25	0.419	0.151	1.66	3.125	12.5	4.00	–
COC(=O)CNC(=O)c1nc2c(-c3ccc(S(=O)(=O)C4CNC4)c(S(N)(=O)=O)c3-c3nn[nH]n3)cccc2[nH]1 [Example 256, Methyl (4-(4-(azetidin-3-ylsulfonyl)-3-sulfamoyl-2-(2H-tetrazol-5-yl)phenyl)-1H-benzo[d]imidazole-2-carbonyl)glycinate]	6.25	12.5	6.25	0.35	0.108	0.999	6.25	6.25	1.00	–
NS(=O)(=O)c1c(S(=O)(=O)C2CNC2)ccc(-c2cccc3[nH]c(C(=O)NCC(=O)O)nc23)c1-c1nn[nH]n1 [Example 257, (4-(4-(azetidin-3-yl sulfonyl)-3-sulfamoyl-2-(2H-tetrazol-5-yl)phenyl)-1H-benzo[d]imidazole-2-carbonyl)glycine]	25	50	25	0.428	0.123	1.2	12.5	25	2.00	–
Nc1nc2c(-c3ccc(S(=O)(=O)CCN4CCOCC4)c(S(N)(=O)=O)c3-c3nn[nH]n3)cccc2s1 [Example 258, 3-(2-Aminobenzo[d]thiazol-4-yl)-6-((2-morpholinoethyl)sulfonyl)-2-(2H-tetrazol-5-yl)benzenesulfonamide]	12.5	25	25	0.454	0.228	–	6.25	12.5	2.00	0.469
Nc1nc2c(-c3ccc(S(=O)(=O)CCN4CCOCC4=O)c(S(N)(=O)=O)c3-c3nn[nH]n3)cccc2s1 [Example 259, 3-(2-aminobenzo[d]thiazol-4-yl)-6-((2-(3-oxomorpholino)ethyl)sulfonyl)-2-(2H-tetrazol-5-yl)benzenesulfonamide]	12.5	25	25	0.245	0.167	0.349	6.25	12.5	2.00	–
